Test results reported in US11040028B2, “Penicinotam derivative, preparation method and use thereof” (OCEAN UNIVERSITY OF CHINA, priority 2017, dated 2021).

Legend:
Assay type in all cases: cell-based
BHK-21 cells = assay: Anti-fibrosis activity test: inhibition of BHK-21 cell proliferation (CCK-8); conditions: Mesocricetus auratus, BHK-21, 48 h
Procedure, shortened: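 Proliferation of BHK-21 cells is measured by CCK-8 at 450 nm following 48 h compound exposure at several concentrations. Inhibition is expressed relative to blank control and IC50 is computed from it.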

[1] = test system: human lung fibroblasts HFL1; assay: Anti-fibrosis activity test: inhibition of proliferation of human lung fibroblasts HFL1 (CCK-8); conditions: Homo sapiens, HFL1, 48 h
Procedure, shortened: (§1)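 After one day of adherence at 37° C in 5% CO2, cells (seeded at 2×10^4 cells/mL) received the compounds for two days in triplicate. Inhibition of proliferation was quantified with CCK-8 at 450 nm, with IC50 calculated from IR = (1−Ai/Ao)×100%.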

[2] = test system: human hepatic stellate cells LX-2; assay: Anti-fibrosis activity test: inhibition of proliferation of human hepatic stellate cells LX-2 (CCK-8); conditions: Homo sapiens, 48 h
Procedure, shortened: as §1

[3] = test system: human fibrosarcoma cells HT-1080; assay: Anti-fibrosis activity test: inhibition of proliferation of human fibrosarcoma cells HT-1080 (CCK-8); conditions: Homo sapiens, HT-1080, 48 h
Procedure, shortened: as §1

[4] = test system: human dermal fibroblasts CCC-ESF-1; assay: Anti-fibrosis activity test: inhibition of proliferation of human dermal fibroblasts CCC-ESF-1 (CCK-8); conditions: Fibroblast
Procedure, shortened: as §1

[5] = test system: human embryonic lung fibroblast IMR-90; assay: Anti-fibrosis activity test: inhibition of proliferation of human embryonic lung fibroblast IMR-90 (CCK-8)
Procedure, shortened: as §1

[6] = test system: cardiac fibroblast RAT-iCell-C002; assay: Anti-fibrosis activity test: inhibition of proliferation of cardiac fibroblast RAT-iCell-C002 (CCK-8); conditions: Cardiac fibroblast, 48 h
Procedure, shortened: as §1

NF-κB = assay: Immunological activity test: inhibition of NF-κB activity; conditions: initial concentration of 30 μM; a/b isomers given as first/second symbol; read-out: IC50 (μM), inhibitory activity against NF-κB
Excerpt: Main references for immunological activity test of the compounds of the present application includes: Vogl, S.; Atanasov, A. G.; Binder, M.; Bulusu, M.; Zehl, M.; Fakhrudin, N.; Heiss, E. H.; Picker, P.; Wawrosch, C.; Saukel, J.; Reznicek, G.; Urban, E.; Bochkov, V.; Dirsch, V. M.; Kopp, B. J. Evid-Based Complementary Alern. Med. 2013, ID 395316. Commercially available parthenolide was utilized as a positive control.
The ability of the compounds of the present application to inhibit NF-κB activity was tested at an initial concentration of 30 μM.
The assay data for the compounds of the present application were further analyzed to determine their IC50 values.

[7] = Homo sapiens, CCC-ESF-1 cells, 48 h, CCK-8
[8] = Homo sapiens, IMR-90 cells, 48 h, CCK-8
[9] = CCK-8, 48 hours after administration
[10] = human lung fibroblasts HFL1, CCK-8, 48 hours
[11] = human hepatic stellate cells LX-2, CCK-8, 48 hours
[12] = human fibrosarcoma cells HT-1080, CCK-8, 48 hours
[13] = human dermal fibroblasts CCC-ESF-1, CCK-8, 48 hours
[14] = human embryonic lung fibroblast IMR-90, CCK-8, 48 hours
[15] = cardiac fibroblast RAT-iCell-C002, CCK-8, 48 hours

| SMILES | IC50 (BHK-21 cells; 48 h, CCK-8) | IC50 ([1]; HFL1 cells, 48 h, CCK-8) | IC50 ([2]; LX-2, 48 h, LX-2 cells, CCK-8) | IC50 ([3]; HT-1080 cells, 48 h, CCK-8) | IC50 [4, 7] | IC50 [5, 8] | IC50 ([6]; RAT-iCell-C002 cells, CCK-8) | IC50 (NF-κB) | IC50 (BHK-21 cells; [9]) | IC50 [1, 10] | IC50 [2, 11] | IC50 [3, 12] | IC50 [4, 13] | IC50 [5, 14] | IC50 [6, 15] |
| --- | --- | --- | --- | --- | --- | --- | --- | --- | --- | --- | --- | --- | --- | --- | --- |
| Cc1ccc2c(=O)c3c([nH]c2c1)-c1cccn1C3=O [Compound 714a, 6-Methyl-9H-pyrrolizino[1,2-b]quinoline-9,10(4H)-dione] | 0.05 to 5 mM | 0.05 to 5 mM | 0.05 to 5 mM | 0.05 to 5 mM | 0.05 to 5 mM | 0.05 to 5 mM | 0.05 to 5 mM | 1 to 10 µM | – | – | – | – | – | – | – |
| O=C1c2c(nc3ccc(F)cc3c2OCc2ccc(C(F)(F)F)cc2)-c2cccn21 [Compound 620b, 7-Fluoro-9-((4-(trifluoromethyl)benzyl)oxy)-10H-pyrrolizino[1,2-b]quinolin-10-one] | – | – | – | – | – | – | – | 1 to 10 µM | 0.05 to 5 mM | 0.05 to 5 mM | 0.05 to 5 mM | 0.05 to 5 mM | 5 to 20 mM | 0.05 to 5 mM | 0.05 to 5 mM |
| N#Cc1ccc2c(OCc3cccc(F)c3)c3c(nc2c1)-c1cccn1C3=O [Compound 515b, 9-((3-fluorobenzyl)oxy)-10-oxo-10H-pyrrolizino[1,2-b]quinoline-6-carbonitrile] | – | – | – | – | – | – | – | 1 to 10 µM | 0.05 to 5 mM | 0.05 to 5 mM | 0.05 to 5 mM | 5 to 20 mM | 0.05 to 5 mM | 5 to 20 mM | < 0.05 mM |
| O=C1c2c(n(Cc3ccc(F)cc3)c3ccc(F)cc3c2=O)-c2cccn21 [Compound 617a, 7-Fluoro-4-(4-fluorobenzyl)-9H-pyrrolizino[1,2-b]quinoline-9,10(4H)-dione] | – | – | – | – | – | – | – | 0.1 to 1 µM | < 0.05 mM | 0.05 to 5 mM | 0.05 to 5 mM | 0.05 to 5 mM | 0.05 to 5 mM | 0.05 to 5 mM | 0.05 to 5 mM |
| N#Cc1ccc(COc2c3c(nc4ccc(F)cc24)-c2cccn2C3=O)cc1 [Compound 619b, 4-(((7-fluoro-10-oxo-10H-pyrrolizino[1,2-b]quinolin-9-yl)oxy)methyl)benzonitrile] | – | – | – | – | – | – | – | 1 to 10 µM | 0.05 to 5 mM | 0.05 to 5 mM | 0.05 to 5 mM | 0.05 to 5 mM | < 0.05 mM | 0.05 to 5 mM | 0.05 to 5 mM |
| O=C1c2c(n(Cc3ccc(Cl)cc3)c3ccc(F)cc3c2=O)-c2cccn21 [Compound 618a, 4-(4-Chlorobenzyl)-7-fluoro-9H-pyrrolizino[1,2-b]quinoline-9,10(4H)-dione] | – | – | – | – | – | – | – | 1 to 10 µM | 0.05 to 5 mM | 0.05 to 5 mM | 0.05 to 5 mM | 0.05 to 5 mM | 0.05 to 5 mM | 0.05 to 5 mM | 0.05 to 5 mM |
| N#Cc1ccc2nc3c(c(OCc4ccc(C(F)(F)F)cc4)c2c1)C(=O)n1cccc1-3 [Compound 627b, 10-oxo-9-((4-(trifluoromethyl)benzyl)oxy)-10H-pyrrolizino[1,2-b]quinoline-7-carbonitrile] | – | – | – | – | – | – | – | 1 to 10 µM | 0.05 to 5 mM | 0.05 to 5 mM | 0.05 to 5 mM | 0.05 to 5 mM | 0.05 to 5 mM | 0.05 to 5 mM | 0.05 to 5 mM |
| N#Cc1ccc2nc3c(c(OCc4ccc(F)cc4)c2c1)C(=O)n1cccc1-3 [Compound 624b, 9-((4-fluorobenzyl)oxy)-10-oxo-10H-pyrrolizino[1,2-b]quinoline-7-carbonitrile] | – | – | – | – | – | – | – | 1 to 10 µM | 0.05 to 5 mM | < 0.05 mM | 5 to 20 mM | 0.05 to 5 mM | 0.05 to 5 mM | 0.05 to 5 mM | 0.05 to 5 mM |
| O=C1c2c(n(Cc3ccc(Cl)cc3F)c3ccc(F)cc3c2=O)-c2cccn21 [Compound 621a, 4-(4-Chloro-2-fluorobenzyl)-7-fluoro-9H-pyrrolizino[1,2-b]quinoline-9,10(4H)-dione] | – | – | – | – | – | – | – | 1 to 10 µM | 0.05 to 5 mM | 0.05 to 5 mM | 0.05 to 5 mM | 0.05 to 5 mM | 0.05 to 5 mM | 0.05 to 5 mM | 0.05 to 5 mM |
| O=C1c2c(nc3ccc(F)cc3c2OCc2ccc(F)cc2)-c2cccn21 [Compound 617b, 7-fluoro-9-((4-fluorobenzyl)oxy)-10H-pyrrolizino[1,2-b]quinolin-10-one] | – | – | – | – | – | – | – | 1 to 10 µM | 0.05 to 5 mM | 0.05 to 5 mM | 0.05 to 5 mM | 0.05 to 5 mM | 0.05 to 5 mM | 0.05 to 5 mM | 0.05 to 5 mM |
| N#Cc1ccc2c(c1)c(=O)c1c(n2Cc2ccc(-c3ccccc3)cc2)-c2cccn2C1=O [Compound 628a, 4-([1,1′-Biphenyl]-4-ylmethyl)-9,10-dioxo-4,10-dihydro-9H-pyrrolizino[1,2-b]quinoline-7-carbonitrile] | – | – | – | – | – | – | – | 1 to 10 µM | 0.05 to 5 mM | 5 to 20 mM | 0.05 to 5 mM | 0.05 to 5 mM | 0.05 to 5 mM | 0.05 to 5 mM | 0.05 to 5 mM |
| O=C1c2c(n(Cc3cc(C(F)(F)F)cc(C(F)(F)F)c3)c3cc(N4CCNCC4)ccc3c2=O)-c2cccn21 [Compound 631a, 4-(3,5-Bis(trifluoromethyl)benzyl)-6-(piperazin-1-yl)-9H-pyrrolizino[1,2-b]quinoline-9,10(4H)-dione] | – | – | – | – | – | – | – | 1 to 10 µM | 0.05 to 5 mM | 0.05 to 5 mM | 0.05 to 5 mM | 0.05 to 5 mM | 0.05 to 5 mM | 0.05 to 5 mM | 0.05 to 5 mM |
| N#Cc1ccc(Cn2c3c(c(=O)c4cc(C#N)ccc42)C(=O)n2cccc2-3)cc1 [Compound 626a, 4-(4-Cyanobenzyl)-9,10-dioxo-4,10-dihydro-9H-pyrrolizino[1,2-b]quinoline-7-carbonitrile] | – | – | – | – | – | – | – | 1 to 10 µM | 0.05 to 5 mM | 0.05 to 5 mM | 0.05 to 5 mM | 0.05 to 5 mM | < 0.05 mM | 0.05 to 5 mM | 0.05 to 5 mM |
| CC(C)CCn1c2c(c(=O)c3ccccc31)C(=O)n1cccc1-2 [Compound 8a, 4-Isopentyl-9H-pyrrolizino[1,2-b]quinoline-9,10(4H)-dione] | – | – | – | – | – | – | – | 10 to 50 µM | 5 to 20 mM | 0.05 to 5 mM | 0.05 to 5 mM | 0.05 to 5 mM | 0.05 to 5 mM | 5 to 20 mM | 0.05 to 5 mM |
| O=C1c2c(nc3ccccc3c2Oc2ccc(Cl)cc2)-c2cccn21 [Compound 34b, 9-(4-chlorophenoxy)-10H-pyrrolizino[1,2-b]quinolin-10-one] | – | – | – | – | – | – | – | 1 to 10 µM | 0.05 to 5 mM | 0.05 to 5 mM | 0.05 to 5 mM | 0.05 to 5 mM | < 0.05 mM | 0.05 to 5 mM | 0.05 to 5 mM |
| N#Cc1ccc(Cn2c3c(c(=O)c4cc(F)ccc42)C(=O)n2cccc2-3)cc1 [Compound 619a, 4-((7-Fluoro-9,10-dioxo-9H-pyrrolizino[1,2-b]quinolin-4(10H)-yl)methyl)benzonitrile] | – | – | – | – | – | – | – | 1 to 10 µM | 0.05 to 5 mM | 0.05 to 5 mM | 0.05 to 5 mM | 0.05 to 5 mM | < 0.05 mM | 0.05 to 5 mM | 0.05 to 5 mM |
| Cc1ccc2c(O)c3c(nc2c1)-c1cccn1C3=O [Compound 714b, 9-hydroxy-6-methyl-10H-pyrrolizino[1,2-b]quinolin-10-one] | 0.05 to 5 mM | 0.05 to 5 mM | 0.05 to 5 mM | 0.05 to 5 mM | 0.05 to 5 mM | 0.05 to 5 mM | 0.05 to 5 mM | 0.001 to 0.1 µM | – | – | – | – | – | – | – |
| O=C1c2c(n(Cc3ccccc3Cl)c3cc(C(F)(F)F)ccc3c2=O)-c2cccn21 [Compound 546a, 4-(2-Chlorobenzyl)-6-(trifluoromethyl)-9H-pyrrolizino[1,2-b]quinoline-9,10(4H)-dione] | – | – | – | – | – | – | – | 1 to 10 µM | < 0.05 mM | 0.05 to 5 mM | 0.05 to 5 mM | 0.05 to 5 mM | 0.05 to 5 mM | 0.05 to 5 mM | 0.05 to 5 mM |
| O=C1c2c(nc3cc(C(F)(F)F)ccc3c2OCc2ccc(Cl)cc2)-c2cccn21 [Compound 544b, 9-((4-chlorobenzyl)oxy)-6-(trifluoromethyl)-10H-pyrrolizino[1,2-b]quinolin-10-one] | – | – | – | – | – | – | – | 1 to 10 µM | 0.05 to 5 mM | 0.05 to 5 mM | 0.05 to 5 mM | 0.05 to 5 mM | 0.05 to 5 mM | 0.05 to 5 mM | 0.05 to 5 mM |
